≈ marks a conversion by molar mass, not a printed value.
Key:
Phytophthora infestans [1] = assay type: in vivo, Phytophthora infestans (on tomato plants); details: tomato, spray 0.06% active ingredient, infested after 24 hours, evaluated after 5 days at 20° C.
[2] = Volatility: evaporation half-life T50 in an evaporating tube; assay type: physicochemical; details: 50° C., stream of air of 20 m/h, relative to T50 of Metalaxyl
Procedure: (§1) Determination of physico-chemical data
In an evaporating tube, the evaporation half-life values T50 of representative fungicides of this invention are determined at 50° C. and in a stream of air of 20 m/h. The values are shown below, relative to the corresponding half-life T50 of Metalaxyl.

Water solubility = assay type: physicochemical; details: 25° C.
Description: as §1
(a) Reduced water solubility

Pythium debaryanum [3] = test: Action on Pythium debaryanum on sugar beets, (a) after soil application; assay type: in vivo; details: sugar beet, 20 ppm of active ingredient based on volume of soil, 2-3 weeks at 20°-24° C.
Description: (§2) Action on Pythium debaryanum on sugar beets
(a) Action after soil application
The fungus is cultivated on carrot chips nutrient solution and added to a mixture of earth and sand. Flower pots are filled with the infected soil, in which sugar beet seeds are then sown. Immediately after sowing, the test preparations formulated as wettable powders are poured in the form of aqueous suspensions over the soil (20 ppm of active ingredient, based on the volume of the soil). The pots are then stood for 2-3 weeks in a greenhouse at 20°-24° C. The soil is kept uniformly moist by gently spraying it with water. The emergence of the sugar beet plants as well as the number of healthy and sick plants are ascertained in evaluating the test.

Venturia inaequalis = test: Residual-protective action against Venturia inaequalis on apple shoots; assay type: in vivo; details: spray 0.06%, evaluated 15 days after infection
Procedure: Residual-protective action against Venturia inaequalis on apple shoots
Apple cuttings with 10-20 cm long fresh shoots are sprayed with a spray mixture prepared from a wettable powder formulation of the active ingredient (0.06%). After 24 hours the treated plants are infected with a conidia suspension of the fungus. The plants are then incubated for 5 days at 90-100% relative humidity and stood in a greenhouse for a further 10 days at 20°-24° C. Scab infestation is evaluated 15 days after infection.

Pythium debaryanum [4] = test: Action on Pythium debaryanum on sugar beets, (b) after seed dressing application; assay type: in vivo; details: sugar beet, seed dressing 0.06%, 2-3 weeks at c. 20° C.
Procedure: as §2
(b) Action after seed dressing application
The fungus is cultivated on carrot chip nutrient solution and added to a mixture of earth and sand. Flower pots are filled with the infected soil and sugar beet seeds which have been treated with the test preparations formulated as seed dressing powders are sown therein (0.06% of one of the compounds of Tables 1 and 2). The pots are then stood in a greenhouse for 2-3 weeks at c. 20° C. The soil is kept uniformly moist by gently spraying it with water. The emergence of the sugar beet plants is ascertained in evaluating the test.

Podosphaera leucotricha = test: Residual-protective action against Podosphaera leucotricha on apples; assay type: in vivo; details: apple seedlings, spray 0.06% of active ingredient, evaluated 12 days after infection
Procedure: Residual-protective action against Podosphaera leucotricha on apples
Apple seedlings in the 5-leaf stage are sprayed with a spray mixture (0.06% of active ingredient) prepared from a wettable powder formulation of the active ingredient. After 24 hours the treated plants are infected with a conidia suspension of the fungus and placed in a climatic chamber at 70% relative humidity and 20° C. Evaluation of fungus infestation is made 12 days after infection.

Phytophthora infestans [5] = assay type: in vivo, Phytophthora infestans (on tomato plants); details: tomato, sprayed 0.06% active ingredient 22 hours after infestation, evaluated 5 days after infestation

SMILES | fungus attack compared with untreated control plants (100% attack), residual-protective (Phytophthora infestans [1]) | Multiple of Metalaxyl T50 (evaporation half-life) [2] | solubility (Water solubility) | emergent plants (fully effective against Pythium pathogens), soil application (Pythium debaryanum [3]) | scab infestation (reduced to) (Venturia inaequalis) | emergent plants (fully effective against Pythium pathogens), seed dressing application (Pythium debaryanum [4]) | fungus attack compared with untreated and infected control seedlings (100% attack) (Podosphaera leucotricha) | fungus attack compared with untreated and infected control plants (100% attack), residual curative (Phytophthora infestans [5])
COCC(=O)N(c1c(C)ccc([N+](=O)[O-])c1C)C(C)C(=O)OC (stereo not shown) [Compound 28, N-(1'-methoxycarbonylethyl)-N-methoxyacetyl-2,6-dimethyl-3-nitroaniline] | less than 10% | 35.8 × | 2500 µg/mL (≈ 7.71 mM) | over 90% | 10-15% | over 90% | less than 10% | less than 10%
CCOCC(=O)N(c1c(C)ccc([N+](=O)[O-])c1C)C(C)C(=O)OC (stereo not shown) [Compound 31, N-(1'-methoxycarbonylethyl)-N-ethoxyacetyl-2,6-dimethyl-3-nitroaniline] | less than 10% | 41.8 × | 2500 µg/mL (≈ 7.39 mM) | over 90% | 10-15% | over 90% | less than 10% | less than 10%

From patent US4377587A, “Arylamine derivatives and use thereof as microbicides” (Ciba-Geigy Corporation, priority 1980, dated 1983)
